In one assay the test system is IL-6 release by LL29 fibroblasts. Description: NECA-induced IL-6 release by LL29 fibroblasts. It counts as cell-based. Particulars: Homo sapiens, Fibroblast; LL29 cells stimulated with NECA (10 μM), 24 hours, IL-6 ELISA of supernatant. The method, then:
Stimulation of fibroblasts with adenosine or the adenosine analog 5′-N-ethylcarboxamidoadenosine (NECA) leads to release of the pro-inflammatory and pro-fibrotic cytokine IL-6 which can be prevented by inhibition of the A2b receptor.
Accordingly, confluent cells of the human fibroblast cell line LL29 were treated with the test substances and stimulated with NECA (10 μM). After an incubation time of 24 hours, the cell supernatant is removed and human IL-6 in the cell supernatant is determined by ELISA (Quantikine® IL6 ELISA, R&D Systems, Minneapolis, USA).
Table 3 below lists the IC50 values obtained in this way for inhibition of IL-6 release for representative working examples (in some cases as means of a plurality of independent individual determinations and rounded to two significant figures; it may also be the case here that various independent preparations of the respective working example have been used): […]
For the compound `COCCn1c(=O)n(C2CC2)c(=O)c2c(C)c(CN3CCNC3=NC(=O)OC)sc21` [Example 26, Methyl [1-{[3-cyclopropyl-1-(2-methoxyethyl)-5-methyl-2,4-dioxo-1,2,3,4-tetrahydrothieno[2,3-d]pyrimidin-6-yl]methyl}imidazolidin-2-ylidene]carbamate], inhibition was half-maximal at 12 nM (IC50). Still for that read-out and setting: the figure for `Cc1c(Cn2nc[nH]c2=O)sc2c1c(=O)n(C1(C)CC1)c(=O)n2CCOC(F)(F)F` [Example 76, 5-Methyl-3-(1-methylcyclopropyl)-6-[(5-oxo-4,5-dihydro-1H-1,2,4-triazol-1-yl)methyl]-1-[2-(trifluormethoxy)ethyl]thieno[2,3-d]pyrimidine-2,4(1H,3H)-dione] is 11 nM.

The next assay deals with T1, human adenosine A2b receptor (Homo sapiens, UniProt P29275).
T1 sequence (P29275 1-332): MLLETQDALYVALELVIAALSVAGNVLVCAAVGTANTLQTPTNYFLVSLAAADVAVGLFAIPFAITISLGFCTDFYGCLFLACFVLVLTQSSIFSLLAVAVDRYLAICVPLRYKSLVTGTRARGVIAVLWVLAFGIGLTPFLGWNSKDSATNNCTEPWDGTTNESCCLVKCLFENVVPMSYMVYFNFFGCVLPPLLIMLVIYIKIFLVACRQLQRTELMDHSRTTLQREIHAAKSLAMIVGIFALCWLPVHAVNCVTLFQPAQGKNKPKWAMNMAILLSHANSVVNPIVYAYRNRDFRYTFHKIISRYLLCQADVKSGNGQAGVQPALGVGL
The assay is described as follows: Cellular in vitro reporter gene test for A2b receptor activity (antagonism of NECA). In kind it is cell-based. Also on record: expressed in transfected cells; host or cells: CHO-K1 (Chinese hamster ovary) with CRE-luciferase reporter. The following applies: recombinant CHO-K1 cells, CRE-luciferase reporter, co-incubation with EC50 concentration of NECA, 3 hours. An outline of the steps: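 Antagonism measured as block of NECA-induced, cAMP/CRE-dependent luciferase expression in recombinant A2b CHO-K1 cells. NECA used at the EC50 set in a pre-experiment on each test day; luminescence detected after 3 h. Reported as IC50, partly averaged and rounded to two significant figures.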
Consider `COCCn1c(=O)n(C2CC2)c(=O)c2c(C)c(CN3CCNC3=NC(=O)OC)sc21` [Example 26, Methyl [1-{[3-cyclopropyl-1-(2-methoxyethyl)-5-methyl-2,4-dioxo-1,2,3,4-tetrahydrothieno[2,3-d]pyrimidin-6-yl]methyl}imidazolidin-2-ylidene]carbamate], for which the IC50 came out at 8.3 nM. On the same count and under the same terms, next, `Cc1c(Cn2nc[nH]c2=O)sc2c1c(=O)n(C1(C)CC1)c(=O)n2CCOC(F)(F)F` [Example 76, 5-Methyl-3-(1-methylcyclopropyl)-6-[(5-oxo-4,5-dihydro-1H-1,2,4-triazol-1-yl)methyl]-1-[2-(trifluormethoxy)ethyl]thieno[2,3-d]pyrimidine-2,4(1H,3H)-dione]: 8.5 nM; `COC(=O)N=C1NCCN1Cc1sc2c(c1C)c(=O)n(C1CC3(CCC3)C1)c(=O)n2CCC(F)(F)F` [Example 176, Methyl [1-{[5-methyl-2,4-dioxo-3-(spiro[3.3]hept-2-yl)-1-(3,3,3-trifluoropropyl)-1,2,3,4-tetrahydrothieno[2,3-d]pyrimidin-6-yl]methyl}imidazolidin-2-ylidene]carbamate]: 4 nM.

On to `Cc1c(Cn2cc[nH]c2=O)sc2c1c(=O)n(C1CC1C)c(=O)n2CCOC(F)(F)F` (racemic) [Example 270, 5-Methyl-3-(2-methylcyclopropyl)-6-[(2-oxo-2,3-dihydro-1H-imidazol-1-yl)methyl]-1-[2-(trifluoromethoxy)ethyl]thieno[2,3-d]pyrimidine-2,4(1H,3H)-dione], for which the IC50 was 1.5 nM. Consider `Cc1c(CN2CCNC2=O)sc2c1c(=O)n(C1CC1(C)C)c(=O)n2CCCF` (racemic) [Example 97, 3-(2,2-Dimethylcyclopropyl)-1-(3-fluoropropyl)-5-methyl-6-[(2-oxoimidazolidin-1-yl)methyl]thieno[2,3-d]pyrimidine-2,4(1H,3H)-dione], for which the IC50 was determined as 26 nM. Still for that read-out and setting: the figure for `Cc1c(CN2CCNC2=O)sc2c1c(=O)n(C1CC1C)c(=O)n2CC(F)(F)F` (single isomer, unassigned) [Example 239, 5-Methyl-3-(2-methylcyclopropyl)-6-[(2-oxoimidazolidin-1-yl)methyl]-1-(2,2,2-trifluoroethyl)thieno[2,3-d]pyrimidine-2,4(1H,3H)-dione] is 4.7 nM. As for `COCCn1c(=O)n([C@H]2C[C@@H]2C)c(=O)c2c(C)c(Cn3nc[nH]c3=O)sc21` [Example 325, 1-(2-Methoxyethyl)-5-methyl-3-[(1S,2S)-2-methylcyclopropyl]-6-[(5-oxo-4,5-dihydro-1H-1,2,4-triazol-1-yl)methyl]thieno[2,3-d]pyrimidine-2,4(1H,3H)-dione], the IC50 came out at 43 nM.

On to `Cc1c(CN2CCNC2=NC#N)sc2c1c(=O)n(C1CCCC1)c(=O)n2CCC(F)(F)F` [Example 185, [1-{[3-Cyclopentyl-5-methyl-2,4-dioxo-1-(3,3,3-trifluoropropyl)-1,2,3,4-tetrahydrothieno[2,3-d]pyrimidin-6-yl]methyl}imidazolidin-2-ylidene]cyanamide], for which the IC50 stood at 16 nM. On the same count and under the same terms, the figure for `Cc1c(Cn2cc[nH]c2=O)sc2c1c(=O)n(C1(C)CC1)c(=O)n2CC1CC(F)(F)C1` [Example 216] is 3.2 nM; for `Cc1c(Cn2nc[nH]c2=O)sc2c1c(=O)n(C1(C)CC1)c(=O)n2CC#N` [Example 69, [5-Methyl-3-(1-methylcyclopropyl)-2,4-dioxo-6-[(5-oxo-4,5-dihydro-1H-1,2,4-triazol-1-yl)methyl]-3,4-dihydrothieno[2,3-d]pyrimidin-1(2H)-yl]acetonitrile] it is 120 nM; for `Cc1c(Cn2cc[nH]c2=O)sc2c1c(=O)n(C1CC1C)c(=O)n2CCOC(F)(F)F` (single isomer, unassigned) [Example 272, 5-Methyl-3-(2-methylcyclopropyl)-6-[(2-oxo-2,3-dihydro-1H-imidazol-1-yl)methyl]-1-[2-(trifluoromethoxy)ethyl]thieno[2,3-d]pyrimidine-2,4(1H,3H)-dione] it is 1 nM. In the case of `CCC1(n2c(=O)c3c(C)c(CN4CCNC4=O)sc3n(CCOC)c2=O)CC1` [Example 108, 3-(1-Ethylcyclopropyl)-1-(2-methoxyethyl)-5-methyl-6-[(2-oxoimidazolidin-1-yl)methyl]thieno[2,3-d]pyrimidine-2,4(1H,3H)-dione], the IC50 amounted to 110 nM. Still for that read-out and setting: next, `Cc1c(Cn2[nH]ccc2=O)sc2c1c(=O)n(C1CC1C)c(=O)n2CCOC(F)(F)F` (single isomer, unassigned) [Example 275, 5-Methyl-3-(2-methylcyclopropyl)-6-[(5-oxo-2,5-dihydro-1H-pyrazol-1-yl)methyl]-1-[2-(trifluoromethoxy)ethyl]thieno[2,3-d]pyrimidine-2,4(1H,3H)-dione]: 63 nM. For the compound `COCCn1c(=O)n(C2CC2C(F)(F)F)c(=O)c2c(C)c(CN3CCNC3=O)sc21` (racemic) [Example 294, 1-(2-Methoxyethyl)-5-methyl-6-[(2-oxoimidazolidin-1-yl)methyl]-3-[2-(trifluoromethyl)cyclopropyl]thieno[2,3-d]pyrimidine-2,4(1H,3H)-dione], the IC50 worked out at 20 nM. On the same count and under the same terms, the figure for `COCCn1c(=O)n(C2CC2OC)c(=O)c2c(C)c(CN3CCNC3=O)sc21` (single isomer, unassigned) [Example 307, 3-(2-Methoxycyclopropyl)-1-(2-methoxyethyl)-5-methyl-6-[(2-oxoimidazolidin-1-yl)methyl]thieno[2,3-d]pyrimidine-2,4(1H,3H)-dione] is 8.1 nM. Same read-out and setting: next, `Cc1c(Cn2nc[nH]c2=O)sc2c1c(=O)n(C1CC1)c(=O)n2CC1CC1(F)F` (racemic) [Example 20, 3-Cyclopropyl-1-[(2,2-difluorocyclopropyl)methyl]-5-methyl-6-[(5-oxo-4,5-dihydro-1H-1,2,4-triazol-1-yl)methyl]thieno[2,3-d]pyrimidine-2,4(1H,3H)-dione (racemate)]: 130 nM; `CCC1CC1n1c(=O)c2c(C)c(Cn3nc[nH]c3=O)sc2n(CCOC)c1=O` (racemic) [Example 303]: 71 nM. Same read-out and setting: the figure for `COCCn1c(=O)n(C2CC(C)(C)C2)c(=O)c2c(C)c(CN3CCNC3=NC(=O)OC)sc21` [Example 171, Methyl [1-{[3-(3,3-dimethylcyclobutyl)-1-(2-methoxyethyl)-5-methyl-2,4-dioxo-1,2,3,4-tetrahydrothieno[2,3-d]pyrimidin-6-yl]methyl}imidazolidin-2-ylidene]carbamate] is 17 nM; for `Cc1c(Cn2nc[nH]c2=O)sc2c1c(=O)n(C1CC1)c(=O)n2CCCC#N` [Example 212, 4-{3-Cyclopropyl-5-methyl-2,4-dioxo-6-[(5-oxo-4,5-dihydro-1H-1,2,4-triazol-1-yl)methyl]-3,4-dihydrothieno[2,3-d]pyrimidin-1 (2H)-yl}butanenitrile] it is 240 nM.

Take `COCCn1c(=O)n([C@H]2C[C@H](OC)C2)c(=O)c2c(C)c(CN3CCNC3=O)sc21` [Example 149, 3-(trans-3-Methoxycyclobutyl)-1-(2-methoxyethyl)-5-methyl-6-[(2-oxoimidazolidin-1-yl)methyl]thieno[2,3-d]pyrimidine-2,4(1H,3H)-dione]: the IC50 worked out at 82 nM. Take `COCCn1c(=O)n(C2CC2)c(=O)c2c(C)c(CN3CCNC3=NC#N)sc21` [Example 25, [1-{[3-Cyclopropyl-1-(2-methoxyethyl)-5-methyl-2,4-dioxo-1,2,3,4-tetrahydrothieno[2,3-d]pyrimidin-6-yl]methyl}imidazolidin-2-ylidene]cyanamide]: the IC50 amounted to 12 nM. Still for that read-out and setting: the figure for `Cc1c(CN2CCNC2=O)sc2c1c(=O)n(C1CC1C)c(=O)n2CC1CCOC1` (single isomer, unassigned) [Example 290, 5-Methyl-3-(2-methylcyclopropyl)-6-[(2-oxoimidazolidin-1-yl)methyl]-1-(tetrahydrofuran-3-ylmethyl)thieno[2,3-d]pyrimidine-2,4(1H,3H)-dione] is 270 nM; for `Cc1c(CN2CCNC2=O)sc2c1c(=O)n(C1CC1C)c(=O)n2CCCF` (racemic) [Example 90, 1-(3-Fluoropropyl)-5-methyl-3-(2-methylcyclopropyl)-6-[(2-oxoimidazolidin-1-yl)methyl]thieno[2,3-d]pyrimidine-2,4(1H,3H)-dione] it is 5.3 nM. Take `COCCn1c(=O)n(C2CCCC2)c(=O)c2c(C)c(CN3CCNC3=O)sc21` [Example 189, 3-Cyclopentyl-1-(2-methoxyethyl)-5-methyl-6-[(2-oxoimidazolidin-1-yl)methyl]thieno[2,3-d]pyrimidine-2,4(1H,3H)-dione]: the IC50 worked out at 40 nM.
